Test in all cases: inhibition of tumour cell growth, NCI panel, 48 h
Assay [1] has as its system HCC-2998 colon.
Assay [2] relates to COLO 205 colon.
Assay [3] relates to A549 NSCLC.
Assay [4] concerns K-562 leukemia.
Assay [5] concerns HOP-92 NSCLC.
For assay [6], the system named is U251 CNS.
The test system of assay [7] is SN12C renal.
The test system of assay [8] is MDA-MB-231 breast.
The subject of assay [9] is T-47D breast.
In assay [10] the test system is NCI/ADR-RES ovarian.

The structures appear in SMILES notation. “And” between values parts separate entries of the source, which are not always exact repeats. Equal values may be shown once.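 Cultured in 96-well plates, cells were exposed to test compound for 48 hours across five concentrations. Abbreviation: GI50, concentration required for 50% inhibition of growth. TGI: total growth inhibition.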

As to `N#CCc1ccc(C(C#N)/C(CCCC(=O)Nc2cccc([N+](=O)[O-])c2)=N/NC(N)=S)cc1` (stereo not drawn), the TGI in assay [1], in assay [2], in [3], in assay [4], in assay [5] and in [6] was more than 100 µM each time. Besides, the TGI in assay [7] was more than 100 µM.
For `Fc1ccc(C2SCc3nc4ccccc4n32)cc1Cl` (stereo not drawn), the TGI in assay [1] is 37.2 µM; in assay [2] it was 28.6 µM; in assay [3] it was more than 100 µM; in assay [4], 55.9 µM; in assay [5], 30.1 µM; in assay [6], 44.6 µM. The TGI in [7] amounted to 35.7 µM.
For `COC(=O)c1cc(C)c(C)c2c1NC(=O)CNC2=O`, the TGI in assay [1], in assay [2], in assay [3], in [4], in [6] and in assay [7] was more than 100 µM throughout.
As for `CCc1ccc(Nc2ccc([N+](=O)[O-])cc2[N+](=O)[O-])cc1`, the TGI in [1], in [3], in [4] and in assay [6] was more than 100 µM throughout.
As for `CN(C)C(c1ccccc1)C(O)c1ccccc1` (stereo not drawn), the TGI in assay [1], in assay [2], in [3], in assay [4], in assay [6] and in assay [7] was more than 100 µM in each case.
Consider `CCCCOC(=O)NC(=O)c1cn(C2CCCCC2)c(=O)[nH]c1=O`, for which the TGI in [1] was more than 100 µM; in assay [2], more than 100 µM; in assay [3] it was more than 100 µM; in assay [4], more than 100 µM; in assay [5] it was 55.1 µM; in [6], 76.1 µM. This compound also came in with a TGI in assay [7] of more than 100 µM.
In the case of `COc1ccc(/C=C\c2cc(OC)c(OC)c(OC)c2)cc1OC(=O)NCCN(C)C`, the GI50 was less than 0.0469 µM in [1], 0.187 µM in assay [2] and less than 0.028 µM in [3]. For the same compound, the TGI in [1] was 0.487 µM; in [2] it was 4.69 µM; in [3], more than 41.3 µM; in assay [4] it was 23.7 µM; in assay [5] it was 0.00065 µM and < 0.0393 µM; in [8], 0.023 µM.
In the case of `COc1ncc(-c2ccc3ncnc(Nc4cccc(Cl)c4)c3c2)cc1NS(=O)(=O)CCN1CCOCC1`, the GI50 in assay [6] is 0.824 µM; in [7], 0.293 µM; in assay [9] it was less than 0.01 µM. Moreover, the TGI in assay [6] was more than 100 µM; in assay [7], more than 100 µM; in assay [9] it was 0.6 µM.
Consider `COC(C(O)c1ccc2c(c1)OCO2)P(=O)(c1ccccc1)c1ccccc1` (stereo not drawn), for which the TGI in assay [4], in assay [5], in [6] and in assay [7] was more than 100 µM throughout.
Regarding `c1cc[c]([Pb]([c]2ccccc2)[c]2ccccc2)cc1`, the GI50 in assay [1] is 14.8 µM; in [2], 14.8 µM; in assay [3], 60 µM; in assay [4] it was 11 µM; in assay [5] it was 10.7 µM; in [6], 11.3 µM. Besides, the GI50 in [7] is 8.17 µM. Besides, the TGI in [1] is 37.3 µM; in assay [2], 30.3 µM; in assay [3] it was more than 100 µM; in [4], 61.4 µM; in [5], 47.8 µM; in assay [6] it was 23.9 µM. Besides, the TGI in assay [7] amounted to 22.3 µM.
Take `FC(F)(F)c1nc(-c2ccccc2)oc1Sc1nnc(Sc2oc(-c3ccccc3)nc2C(F)(F)F)s1`: the TGI in assay [1] is more than 100 µM; in [2], more than 69.8 µM; in assay [3], more than 100 µM; in assay [4] it was more than 64.5 µM; in assay [5], 63.4 µM; in assay [6] it was more than 57.2 µM. This compound returned a TGI in assay [7] of more than 100 µM.
Turning to `O=C(/C=C/c1c(O)ccc2ccccc12)c1ccccc1`, the TGI in [1], in [2], in assay [3], in assay [4], in [5] and in [6] was more than 100 µM throughout. In assay [7], this compound registered a TGI of more than 100 µM.
For `Cc1[nH]c2ccccc2c1C1Cc2ccccc2N1C(=O)/C(Cl)=C/c1ccccc1` (stereo not drawn), the TGI in assay [1], in assay [2], in assay [3], in [4], in assay [5] and in [6] was more than 100 µM each time. Further, in [7], the TGI is more than 100 µM.
Regarding `CCOc1ccc2c(c1)[n+]([O-])c(-c1nc3ccccc3s1)c(N)[n+]2[O-]`, the TGI is more than 100 µM in assay [1]; more than 100 µM in assay [2]; more than 100 µM in assay [3]; more than 100 µM in assay [4]; 70.1 µM in [5]; more than 100 µM in assay [6]. Moreover, in [7], the TGI is more than 100 µM.
For `N#C/C(=C\c1cc2ccccc2c2ccccc12)c1ccccc1`, the TGI in assay [1] was 59.2 µM; in assay [2], 10.6 µM; in [3], more than 100 µM; in assay [4], 13.7 µM; in [5] it was more than 71.7 µM; in assay [6] it was 36.8 µM. In [7], the TGI was more than 95.8 µM.
As for `COc1ccc(/C(Cl)=C(\C=O)c2ccc([N+](=O)[O-])cc2)cc1`, the TGI in assay [1] is 62.6 µM; in [2], 40.4 µM; in assay [3] it was 66.6 µM; in [4], more than 37.5 µM; in assay [5], 31.2 µM; in assay [6] it was 19.4 µM. Also, the TGI in assay [7] amounted to 49.1 µM.
Regarding `COC(=O)C12C3C4C1C1C2C3C41NC(=O)c1csc([C@@H](C[C@H](C(C)C)N(C)C(=O)[C@@H](NC(=O)[C@H]2CCCCN2C)C2CC2)OC(C)=O)n1` (stereo partly drawn), the GI50 is 0.146 µM in [1]; 0.00727 µM in [2]; 0.157 µM in [3]; 0.00569 µM in assay [4]; 0.0527 µM in assay [6]; 0.0242 µM in [7]. The GI50 in assay [8] was 0.0414 µM; in [10] it was 2.7 µM. Further, the TGI in assay [1] is more than 33.3 µM; in assay [2], 0.379 µM; in assay [3] it was more than 33.3 µM; in assay [4] it was more than 33.3 µM; in assay [6], more than 33.3 µM; in [7], more than 33.3 µM. The TGI in assay [8] is 10.9 µM; in [10], more than 33.3 µM.

(Values after PubChem BioAssay (NCI).)
